# Data: the supplement of paper PMC13380429
# ± gives the standard deviation of the averaged measurements.
# What was measured:
# Settings in all cases: 72 h
# Calu-3 [1] = test: drug sensitivity score (DSS) for viability; higher = more toxic; extreme values may be limits of the assay
# HepG2 [2] = test: as above
# Caco-2 [3] = test: as above
# Vero E6 [4] = test: as above
# Calu-3 [5] = test: cell viability relative to DMSO; higher = less toxic
# HepG2 [6] = test: as above
# Caco-2 [7] = test: as above
# Vero E6 [8] = test: as above
# Calu-3 [9] = test: relative viability EC50 (midpoint between 100% and the lowest measured viability); higher = less toxic
# HepG2 [10] = test: as above
# Caco-2 [11] = test: as above
# Vero E6 [12] = test: as above
# U2OS [13] = test: drug sensitivity score (DSS) for viability; higher = more toxic; extreme values may be limits of the assay
# U2OS [14] = test: cell viability relative to DMSO; higher = less toxic
# U2OS [15] = test: relative viability EC50 (midpoint between 100% and the lowest measured viability); higher = less toxic
SMILES,drug sensitivity score (Calu-3 [1]),drug sensitivity score (HepG2 [2]),drug sensitivity score (Caco-2 [3]),drug sensitivity score (Vero E6 [4]),cell viability (Calu-3 [5]; 1 nM) [%],cell viability (Calu-3 [5]; 10 nM) [%],cell viability (Calu-3 [5]; 100 nM) [%],cell viability (Calu-3 [5]; 1000 nM) [%],cell viability (Calu-3 [5]; 10000 nM) [%],cell viability (HepG2 [6]; 1 nM) [%],cell viability (HepG2 [6]; 10 nM) [%],cell viability (HepG2 [6]; 100 nM) [%],cell viability (HepG2 [6]; 1000 nM) [%],cell viability (HepG2 [6]; 10000 nM) [%],cell viability (Caco-2 [7]; 1 nM) [%],cell viability (Caco-2 [7]; 10 nM) [%],cell viability (Caco-2 [7]; 100 nM) [%],cell viability (Caco-2 [7]; 1000 nM) [%],cell viability (Caco-2 [7]; 10000 nM) [%],cell viability (Vero E6 [8]; 1 nM) [%],cell viability (Vero E6 [8]; 10 nM) [%],cell viability (Vero E6 [8]; 100 nM) [%],cell viability (Vero E6 [8]; 1000 nM) [%],cell viability (Vero E6 [8]; 10000 nM) [%],relative viability EC50 (Calu-3 [9]) [µM],relative viability EC50 (HepG2 [10]) [µM],relative viability EC50 (Caco-2 [11]) [µM],relative viability EC50 (Vero E6 [12]) [µM],drug sensitivity score (U2OS [13]),cell viability (U2OS [14]; 1 nM) [%],cell viability (U2OS [14]; 10 nM) [%],cell viability (U2OS [14]; 100 nM) [%],cell viability (U2OS [14]; 1000 nM) [%],cell viability (U2OS [14]; 10000 nM) [%],relative viability EC50 (U2OS [15]) [µM]
NCCCC[C@H](NC(=O)[C@@H]1CCCN1C(=O)[C@@H]1CSSC[C@H](NC(=O)CNC(=O)CNC(=O)CN)C(=O)N[C@@H](Cc2ccc(O)cc2)C(=O)N[C@@H](Cc2ccccc2)C(=O)N[C@@H](CCC(N)=O)C(=O)N[C@@H](CC(N)=O)C(=O)N1)C(=O)NCC(N)=O [terlipressin],0,0,0,0,93.9,92,102,95.8,96.4,94.4,105,94.3,97.4,110,100,96.5,98,100,103,93.7,100,86.1,91.2,110,> 10,> 10,> 10,> 10,,,,,,,
Cc1cn([C@H]2O[C@@H](CO)[C@H](O)[C@H]2F)c(=O)[nH]c1=O [clevudine],0,0,0,,90.3,106,106,97.9,99.3,105,92.7,104,95.2,97.1,102,105,94.4,108,87.5,,,,,,> 10,> 10,> 10,,0,92.4,102,101,98.2,97.2,> 10
NS(=O)(=O)c1cc2c(cc1C(F)(F)F)NC(Cc1ccccc1)NS2(=O)=O (configuration not stated) [bendroflumethiazide],0,0,0,0,109,110,107,98.2,95.1,106,87.1,98.7,93.3,98.6,96.6,101,96.9,99.1,108,92.4,94.9,91.7,92.4,109,> 10,> 10,> 10,> 10,,,,,,,
O=C(O)[C@H](Cc1c[nH]c2ccccc12)N1C(=O)c2ccccc2C1=O [RG108],,0,0,0,,,,,,118,109,114,99.8,109,96.8,100,91.9,106,102,97.4,99.1,97.6,92,101,,> 10,> 10,> 10,0,105,105,97.1,105,96.2,> 10
CC1=C(C(=O)Nc2cc3cn[nH]c3cc2F)C(c2ccc(C(F)(F)F)cc2)CC(=O)N1 (configuration not stated),,0,0,2,,,,,,100,103,104,95.6,92,83,89.6,91.3,99.1,102,102,104,101,82.5,84.4,,> 10,> 10,> 10,0,94.9,97.9,92.3,96.8,86.3,> 10
O=C1COc2nccc(-c3ccccc3F)c2CN1Cc1cc(C(F)(F)F)cc(C(F)(F)F)c1 [GPBAR-A],4.3,0,0.1,0,81.2,104,67.2,98.7,68.1,108,91.3,103,94.4,100,102,102,106,102,86.9,101,99,98.9,101,102,,> 10,> 10,> 10,0,97.7,103,100,104,91.2,> 10
NC(=O)c1ccc[n+]([C@@H]2O[C@H](COP(=O)([O-])OP(=O)(O)OC[C@H]3O[C@@H](n4cnc5c(N)ncnc54)[C@H](O)[C@@H]3O)[C@@H](O)[C@H]2O)c1 [nadide],0,0,0,,102,103,94,96.1,106,110,113,92.1,99.2,99.8,92.3,89.7,99.9,90.5,113,,,,,,> 10,> 10,> 10,,0,101,95.9,97.9,101,111,> 10
Cn1cc(-c2ccc3ncc(Cc4ccc5ncccc5c4)n3n2)cn1 [NVP-BVU972],0.5,13.6,1.2,0,95.9,100,98.6,101,80.8,105,107,87.2,35.8,15.6,96.2,99.2,93.8,97.8,76.4,103,100,103,108,87.8,> 10,0.404,> 10,> 10,,,,,,,
CC(=O)Nc1ccc(S(=O)(=O)c2ccc(NC(C)=O)cc2)cc1 [acedapsone],,0,0,0,,,,,,105,97.3,86.3,107,102,119,115,96.2,108,92.9,106,101,105,99.5,98.8,,> 10,> 10,> 10,0,104,108,102,104,97.4,> 10
O=C(NS(=O)(=O)c1ccc(Br)s1)c1ccc(Cl)cc1Cl [tasisulam],0,0,0,,96.2,104,97.6,95.4,100,114,94.2,105,110,107,99.7,104,94.9,101,92,,,,,,> 10,> 10,> 10,,0,97.2,98.1,96,101,102,> 10
CC(=O)N1CCC[C@H]1C(=O)N[C@@H](Cc1cnc[nH]1)C(=O)N[C@@H](CO)C(=O)N[C@@H](CS)C(=O)N[C@@H](CC(N)=O)C(N)=O [ATN-161],0,0,0,0,102,102,101,107,97.2,102,104,106,93.4,106,107,96.6,97.5,103,104,92.9,103,96.9,100,108,> 10,> 10,> 10,> 10,,,,,,,
O=C(CCCCCCC(=O)Nc1cccnc1)NO [pyroxamide],,8.7,4.2,2.9,,,,,,106,99.6,98.7,76.8,7.6,102,92.9,94.3,91.6,47.6,99.6,103,96.3,99.9,46,,1.54,1.93,3.14,6.5,102,97.8,101,90,12.6,2.22
CCNC(=O)[C@H]1O[C@@H](n2cnc3c(N)ncnc32)[C@H](O)[C@@H]1O [NECA],0.6,0,0,0,106,102,94.9,88.5,92.8,94.8,102,107,105,105,102,97.6,110,111,110,100,105,96.1,101,94.4,> 10,> 10,> 10,> 10,,,,,,,
COc1cccc(N2CCN(C3=Nc4c(F)cccc4[C@H](CC(=O)O)N3c3cc(C(F)(F)F)ccc3OC)CC2)c1 [letermovir],0,0,0.6,,99.6,96,93.9,101,113,102,86.2,94.3,99.1,90.6,97.4,103,103,97.9,83.1,,,,,,> 10,> 10,> 10,,0,105,106,95.8,105,94.9,> 10
O=C(O)CCN(O)C(=O)CCCCCCCCC1CC1 [TC-E-5002],,0,0,0,,,,,,96.1,103,101,99.3,104,89,97.7,91.3,92.1,91.9,97.2,99.2,97.7,93.2,94.9,,> 10,> 10,> 10,,,,,,,
CC1Oc2cc(cnc2N)-c2c(nn(C)c2C#N)CN(C)C(=O)c2ccc(F)cc21 (configuration not stated),4.85 ± 1.1,2.5 ± 1.6,0,3.35 ± 0.35,105 ± 5.7,95.5 ± 3.8,88.7 ± 2.4,74.8 ± 4.3,78.7 ± 7.5,95 ± 4.1,101 ± 9.8,99.3 ± 4.7,87.5 ± 6.2,72.2 ± 6.9,89.2 ± 7.6,97 ± 8,96.15 ± 0.21,91.6 ± 4.1,83.4 ± 7.8,103 ± 4.9,92 ± 6.6,90.5 ± 2.6,80.2 ± 0.28,83.2 ± 7.3,,,> 10,> 10,0.7 ± 0.99,97.8 ± 2.6,103.8 ± 0.64,97.2 ± 2.4,96.6 ± 1.4,83.5 ± 8.1,> 10
